Where two headings read alike, the source gives them in different places.
Legend:
[1] = tested on: B16F10 mouse melanoma cells; test: Tumor cells B16F10 cellular growth IFNγ-induced inhibition assay (CellTiter-Glo); type: cell-based; settings: for IC50: B16-F10, 72 h, 3 days of incubation; for inhibition at 100 µM: B16-F10, B16F10, 100 μM compound
Description: B16F10 mouse melanoma cells (ATCC Cat #CRL-6475) were seeded at a density of 500 cells per well in a 384-well clear bottom plate (Corning Cat #3712, Corning, N.Y.) in 40 μL total volume of DMEM+10% FBS (PanEco Cat #C420, Russia and Sigma Cat #F4135, St. Louis, MO). Cells were allowed to adhere overnight at 37° C., 5% CO2. On the following day, 250× solutions of compounds in DMSO (Sigma Cat #D2650) were prepared into Cmpnds plate (Diamond Well Plate, Axigen, Cat #P-384-120SQ-C-S) (final concentration of 1×) and DMSO only controls were included. Dilution Plate (Diamond Well Plate (Axigen, Cat #P-384-120SQ-C-S) was prepared by adding 49 μL of culture medium per well: half of the plate with culture medium only, half with culture medium+IFNγ (5 ng/ml). A 1 μL aliquot of 250× compounds (Cmpnds plate) was added to 49 μL of culture medium (Dilution plate), then a 10 μL aliquot of the mixture was transferred to Reaction plate with 40 μL of cells followed by centrifugation at 240 g for 1 min. After 3 days of incubation, 10 μL of CellTiter-Glo (Promega) was added to the cells, plates were centrifuged at 240 g for 1 min, and luminescence signal was measured. For each compound, the percent growth inhibition at every compound dose level was calculated relative to the “DMSO/with IFNγ” control and used to determine the IC50.

[2] = Pharmacokinetic (PK) study in mice, oral bioavailability; type: in vivo, Male CD-1 mice; settings: 10 mg/kg PO vs 2 mg/kg IV, 10% Ethanol, 30% PEG-400, 60% Phosal-50PG, form Solution
Description: Pharmacokinetic (PK) study in mice: Male CD-1 mice obtained from Charles River GmbH (Sulzfeld, Germany) with body weight ranging between 30 g to 40 g were used in the PK studies. Group of 12 mice were given a 2 mg/kg intravenous bolus (IV) dose of test article as a solution in 20% HP-beta-CD, and another group of 9 mice were given a 10 mg/kg oral (PO) dose of test article as a solution or suspension in [10% ethanol, 30% PEG-400 and 60% Phosal-50PG]. Blood samples (˜200 μL per time point) were collected twice from each animal—from orbital sinus and by cardiopuncture at 0.083, 0.25, 0.5, 1, 2, 4, 8 and 24 hours after IV administration, and at 0.5, 1, 2, 4, 8 and 24 hours after PO administration, 3 mice/time point. Blood samples were collected in tubes with Na-EDTA 0.5 M solution (1:10) and centrifuged for 10 min at 10,000 rpm at 2 to 8° C. to harvest plasma. Plasma samples were stored at −80° C. until LC/MS/MS analysis. Concentration in each plasma sample was determined by a non-validated LC/MS/MS. Data is acquired using multiple reaction monitoring (MRM) with specific transitions monitored for each compound. Pharmacokinetic Analysis: PK parameters were calculated by non-compartmental methods as described in Gibaldi and Perrier (Gibaldi and Perrier, 1982) using Phoenix® WinNonlin® version 6.3 (Certara L.P.). Following PO administration, percent bioavailability (Fabs) was determined by dividing the dose normalized mean area under the plasma concentration-time curve, extrapolated to the last time point (AUClast) obtained following PO dose by the mean dose normalized AUC of the animals dosed by IV injection. All PK parameters are presented as mean±standard deviation (SD). PK studies were conducted in mice for exemplary compounds of Formula (I). The percent bioavailability (Fabs) values determined are listed in Table C for certain compounds, together with the dosage, vehicle and form used in the studies.

GST-tagged PTPN2 protein = GST-tagged PTPN2 protein (Homo sapiens (Human), UniProt P17706); test: Primary assay of PTPN2 enzymatic activity inhibition (DiFMUP fluorescence); type: biochemical; settings: PTPN2 0.004 ng/μL, DiFUMP substrate 2 μM, 60 min at rt
Chain of GST-tagged PTPN2 protein (P17706 whole entry): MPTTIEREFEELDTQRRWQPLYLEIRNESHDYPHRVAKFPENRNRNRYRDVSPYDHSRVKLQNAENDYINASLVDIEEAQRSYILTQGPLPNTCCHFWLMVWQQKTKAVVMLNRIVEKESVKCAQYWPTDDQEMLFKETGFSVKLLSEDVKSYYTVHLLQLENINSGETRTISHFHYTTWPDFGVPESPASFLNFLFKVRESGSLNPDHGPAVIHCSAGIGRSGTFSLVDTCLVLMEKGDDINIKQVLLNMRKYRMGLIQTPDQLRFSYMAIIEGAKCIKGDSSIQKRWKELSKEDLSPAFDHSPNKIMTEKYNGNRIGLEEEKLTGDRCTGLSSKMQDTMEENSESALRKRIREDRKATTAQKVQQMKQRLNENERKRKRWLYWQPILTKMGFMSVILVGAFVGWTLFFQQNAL
Description: Compound activity was determined using GST-tagged PTPN2 protein (Cat #31592, ActiveMotif) (SEQ ID NO: 1) in an in vitro enzymatic reaction. The enzymatic reaction was carried out in assay buffer (50 mM HEPES Na salt pH 7.2-7.4, 2 mM EDTA, 100 mM NaCl, 52 ng/μL BSA, and 6 mM DTT). The compounds were dispensed on a 384 well Diamond Well Plate (Axigen, Cat #P-384-120SQ-C-S) using the Biomek FX liquid handling system at 100× solutions of compounds in DMSO. 2×PTPN2 (final concentration 0.004 ng/μL) was prepared in 1× Assay buffer and 25 μL of mixture per well was added into Reaction plate (Optiplate, black, Perkin Elmer, Cat #6007270). Add 25 μL of 1× buffer to Ctrl- (Substrate w/o PTPN2) wells followed by centrifugation at 100 g for 1 min. Next step the Compounds were added to Reaction plate using Biomek station via following steps: 3 μl of 100× compounds (in DMSO) were mixed with 27 μL of Assay Buffer, then 5 μL of this mixture was added to Reaction plate with 25 μL of PTPN2 Mix. Plates were centrifuged for 1 min at 100 g and incubated for another 10 min at rt. Finally, 20 μL of 2.5× Substrate (DiFUMP, Invitrogen™ Cat #D6567) mix was added into appropriate wells of Reaction plate to the final concentration of 2 μM, plate was centrifuged at 100 g for 1 min followed by incubation at rt for 60 min, and the Fluorescence Intensity was measured using a Microplate Reader (ClarioStar Plus, excitation 360 nm, emission 450 nm). The % inhibition was then used to calculate the Ki values. The Ki values are shown in Table A, wherein “A” corresponds to Ki<1.0 nm, “B” corresponds to 1.0 nm≤Ki<5.0 nm, “C” corresponds to 5.0 nm≤Ki<10.0 nm, “D” corresponds to 10.0 nm≤Ki<50.0 nm, and “E” corresponds to 50.0 nm≤Ki<100.0 nm, and “F” corresponds to 100.0 nm≤Ki.

- IC50 ([1]; B16F10, no IFNγ, read-out: IC50 no IFNγ): 10 to 50 µM
- IC50 ([1]; B16F10, with IFNγ, read-out: IC50 + IFNγ): 5 to 10 µM
- Fabs, % [2]: 12.5%
- Ki (GST-tagged PTPN2 protein): 0.01 to 0.05 µM
SMILES: CC1CCN=C(Nc2cc(O)c(N3CC(=O)NS3(=O)=O)c(F)c2)N1 (stereo not drawn) [Compound 3, 5-[2-fluoro-6-hydroxy-4-[(6-methyl-1,4,5,6-tetrahydropyrimidin-2-yl)amino]phenyl]-1,1-dioxo-1,2,5-thiadiazolidin-3-one]
- inhibition at 100 µM ([1]; no IFNγ, read-out: % Growth Inhibition at 100 μM no IFNγ): 10 to 50%
- inhibition at 100 µM ([1]; with IFNγ, read-out: % Growth Inhibition at 100 μM + IFNγ): 50 to 75%

— patent US20250313554A1, “PTPN2 INHIBITORS” (Ness Therapeutics, Inc., priority 2022, published 2025)
